Experimental data from patent publication US20120052064A1, “ANTI-HGF ANTIBODY COMBINATIONAL CANCER THERAPIES” (priority 2009, published 2012).

Tests used:
[1] = tested on: IM95m human gastric tumor xenograft; experiment: Human gastric cancer IM95m tumor xenograft model; type: in vivo, mouse; settings: SCID mice, s.c. IM95m; day 53 to day 81; HuL2G7 10 mg/kg i.v. once-weekly, erlotinib 25 mg/kg p.o. once-daily days 53-80, or both
Experimental: FIG. 1. (A) Combination effects of humanized L2G7 (HuL2G7) and erlotinib in gastric cancer (tumor) IM95m xenograft model. Treatment was started from 53 days after inoculation. Mice treated with relevant vehicles (i.v. and/or p.o.), HuL2G7 (10 mg/kg/week, i.v., on days 53, 60, 67, and 74), erlotinib (25 mg/kg, p.o., qd×28 doses) or the combined regimen for 28 days. Data represents mean±SD (n=6). *p≦0.025 by one-tailed Dunnett's test (v.s. vehicle). (B) Comparison of differential tumor volumes of the mice group treated with HuL2G7, erlotinib, and a combination of the two. Tumor volume of each mouse on days 53 was subtracted from the volume on days 81. Data represents mean±SD (n=6). # p≦0.05 by Wilcoxon signed-rank test (v.s. combo).

[2] = tested on: KP-4 human pancreatic tumor xenograft; settings: 40 mg/kg
Experimental: Sunitinib was administered orally and once-daily at a dose of 40 mg/kg on days 11-25 as its 0.5% methyl cellulose suspension. Administration volume was 10 mL/kg.

[3] = target: heparin sulfate proteoglycans (HSPG); settings: HSPG on the cell surface and extracellular matrix; read-out: Kd, low affinity binding site; cited from earlier work
c-Met receptor = c-Met receptor (Homo sapiens, UniProt P08581); settings: read-out: Kd, high affinity binding site; cited from earlier work
Chain of c-Met receptor (P08581 25-1390): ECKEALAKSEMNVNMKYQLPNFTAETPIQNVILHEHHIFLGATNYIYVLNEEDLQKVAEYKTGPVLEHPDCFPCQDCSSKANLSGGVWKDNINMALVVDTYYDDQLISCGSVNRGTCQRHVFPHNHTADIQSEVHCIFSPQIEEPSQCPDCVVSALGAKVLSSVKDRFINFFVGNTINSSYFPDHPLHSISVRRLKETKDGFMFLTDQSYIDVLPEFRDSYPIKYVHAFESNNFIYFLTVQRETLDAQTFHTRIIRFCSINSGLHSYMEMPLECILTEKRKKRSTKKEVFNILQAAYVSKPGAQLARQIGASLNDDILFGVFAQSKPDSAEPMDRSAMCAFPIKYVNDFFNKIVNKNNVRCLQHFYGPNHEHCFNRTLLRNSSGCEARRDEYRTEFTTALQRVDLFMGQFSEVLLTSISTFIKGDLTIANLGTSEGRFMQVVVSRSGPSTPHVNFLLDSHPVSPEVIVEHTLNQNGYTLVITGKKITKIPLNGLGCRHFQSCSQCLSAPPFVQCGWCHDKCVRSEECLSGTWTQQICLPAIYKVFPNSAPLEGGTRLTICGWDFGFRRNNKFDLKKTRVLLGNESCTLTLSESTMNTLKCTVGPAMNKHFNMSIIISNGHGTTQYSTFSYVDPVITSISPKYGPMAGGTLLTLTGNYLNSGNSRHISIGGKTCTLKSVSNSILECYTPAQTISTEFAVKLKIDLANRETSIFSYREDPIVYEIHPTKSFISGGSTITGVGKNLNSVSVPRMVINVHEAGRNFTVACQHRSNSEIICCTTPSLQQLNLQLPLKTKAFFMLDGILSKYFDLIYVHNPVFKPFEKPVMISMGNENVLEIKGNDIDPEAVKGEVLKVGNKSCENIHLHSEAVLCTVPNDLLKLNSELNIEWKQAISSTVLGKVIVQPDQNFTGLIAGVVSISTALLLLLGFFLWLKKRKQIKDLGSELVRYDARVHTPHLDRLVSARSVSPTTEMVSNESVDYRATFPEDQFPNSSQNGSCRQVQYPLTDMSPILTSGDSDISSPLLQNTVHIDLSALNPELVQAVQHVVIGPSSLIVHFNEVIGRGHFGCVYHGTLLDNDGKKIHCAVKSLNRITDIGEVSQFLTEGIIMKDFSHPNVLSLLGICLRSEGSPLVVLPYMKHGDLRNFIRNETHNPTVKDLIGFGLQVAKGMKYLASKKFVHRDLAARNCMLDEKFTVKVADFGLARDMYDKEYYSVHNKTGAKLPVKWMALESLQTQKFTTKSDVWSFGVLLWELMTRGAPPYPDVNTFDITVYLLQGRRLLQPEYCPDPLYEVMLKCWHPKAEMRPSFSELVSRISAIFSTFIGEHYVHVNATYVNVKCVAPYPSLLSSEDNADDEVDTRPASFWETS

For `C#Cc1cccc(Nc2ncnc3cc(OCCOC)c(OCCOC)cc23)c1` [erlotinib], the “T/C (%) = ΔT/ΔC×100, change in tumor volume” value [1] was 45%.
For `CCN(CC)CCNC(=O)c1c(C)[nH]c(/C=C2\C(=O)Nc3ccc(F)cc32)c1C` [sunitinib], the “T/C (%) = ΔT/ΔC×100, change in tumor volume” value [2] was 48%.
For “HGF: multifunctional heterodimeric polypeptide, 102 kDa, ligand of c-Met”, the Kd [3] is given as 1 nM and the Kd (c-Met receptor) is given as 0.2 nM.
